# From US12595261B2, “P2X3 and/or P2X2/3 receptor antagonist, pharmaceutical composition containing same, and use thereof” (BEIJING TIDE PHARMACEUTICAL CO., LTD., priority 2019, dated 2026)
# Tests used:
# [1] = biological target: T1, Human P2X3 receptor (Homo sapiens, UniProt P56373); assay: Inhibitory activity on human P2X3 receptor (FLIPR calcium 6 assay, HEK293-P2X3 cells, agonist α,β-MeATP); assay type: cell-based; details: HEK293-P2X3 stably expressing cell line, FLIPR Tetra
# T1 construct: expressed in transfected cells; host or cells: HEK293 (stably expressing)
# T1 sequence (P56373 1-397): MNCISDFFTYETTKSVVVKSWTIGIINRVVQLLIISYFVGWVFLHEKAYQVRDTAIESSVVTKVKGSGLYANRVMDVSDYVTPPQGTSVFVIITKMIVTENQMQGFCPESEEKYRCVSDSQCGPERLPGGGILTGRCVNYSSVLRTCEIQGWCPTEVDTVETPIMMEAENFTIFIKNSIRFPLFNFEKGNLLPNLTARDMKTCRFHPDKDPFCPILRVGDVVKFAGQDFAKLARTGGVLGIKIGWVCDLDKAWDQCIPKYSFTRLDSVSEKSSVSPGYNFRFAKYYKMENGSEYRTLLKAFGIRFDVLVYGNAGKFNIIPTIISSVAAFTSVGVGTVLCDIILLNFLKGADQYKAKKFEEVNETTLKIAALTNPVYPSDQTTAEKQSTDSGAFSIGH
# Protocol: (§1) Biological Assay: Determination of the Inhibitory Activity of the Compounds on Human P2X3 and P2X2/3 Receptors
# (§2) Cells were seeded into a poly-D-lysine-coated 384-well cell culture plate (Corning) at a density of 11,000 cells/well/25 μL of cell inoculation medium, and were cultured in a cell incubator overnight. On the day of the test, the calcium 6 dye was diluted to a 2× concentration with an assay buffer, 25 μL of the 2× calcium 6 dye was added to the 384-well cell culture plate, which was incubated at 37° C. for 2 hours, and then placed at room temperature for further use. The test compound and the agonist, α,β-MeATP were diluted to a 7× concentration with the assay buffer, 10 μL of the 7× test compound was added to the 384-well cell culture plate, which was incubated at room temperature for 15 minutes, and 10 μL of the 7× α,β-MeATP was transferred into the 384-well cell culture plate. […]
# [2] = biological target: T2, Human P2X2/3 receptor (Homo sapiens, UniProt P56373+Q9UBL9); assay: Inhibitory activity on human P2X2/3 receptor (FLIPR calcium 6 assay, HEK293-P2X2/3 cells, agonist α,β-MeATP); assay type: cell-based; details: HEK293-P2X2/3 stably expressing cell line, FLIPR Tetra
# T2 construct: expressed in transfected cells; host or cells: HEK293 (stably expressing)
# T2 sequence (P56373 1-397): T1 sequence (P56373 1-397)
# T2 sequence (Q9UBL9 1-471): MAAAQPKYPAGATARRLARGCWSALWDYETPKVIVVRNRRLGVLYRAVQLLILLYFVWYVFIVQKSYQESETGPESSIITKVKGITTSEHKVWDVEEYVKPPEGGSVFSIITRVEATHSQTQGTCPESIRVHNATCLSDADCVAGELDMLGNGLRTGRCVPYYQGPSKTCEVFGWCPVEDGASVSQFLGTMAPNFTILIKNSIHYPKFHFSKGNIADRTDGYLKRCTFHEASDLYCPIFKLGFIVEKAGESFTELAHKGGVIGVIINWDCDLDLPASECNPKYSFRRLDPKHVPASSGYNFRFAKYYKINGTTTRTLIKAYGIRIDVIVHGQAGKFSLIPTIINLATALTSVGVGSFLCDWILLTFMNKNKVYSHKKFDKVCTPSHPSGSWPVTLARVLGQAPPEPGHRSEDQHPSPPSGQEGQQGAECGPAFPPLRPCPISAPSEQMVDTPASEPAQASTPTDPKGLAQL
# Protocol: as §1, §2
IC50 [1],IC50 [2],SMILES
60.5 nM,100 nM,"CC(C)c1cnc2c(c1Oc1cnc(N)nc1N)CCN2 [Compound C1, 5-((5-isopropyl-2,3-dihydro-1H-pyrrolo[2,3-b]pyridin-4-yl)oxy)pyrimidin-2,4-diamine]"
86 nM,80 nM,"CC(C)c1cnc2[nH]ccc2c1Oc1cnc(N)nc1N [Compound C4, 5-((5-isopropyl-1H-pyrrolo[2,3-b]pyridin-4-yl)oxy)pyrimidin-2,4-diamine]"
